Assay results as given in PMC3420359 (Journal of computer-aided molecular design, 2011).

Legend:
[1] = biological target: rTRPV1 WT (Rattus norvegicus, UniProt O35433); assay: biochemical; assay type: binding
[2] = biological target: rTRPV1 Y511F (Rattus norvegicus, UniProt O35433, Y511F); assay: biochemical; assay type: binding
[3] = biological target: rTRPV1 M547L (Rattus norvegicus, UniProt O35433, M547L); assay: biochemical; assay type: binding
[4] = biological target: rTRPV1 T550I (Rattus norvegicus, UniProt O35433, T550I); assay: biochemical; assay type: binding
[5] = biological target: rTRPV1 T550S (Rattus norvegicus, UniProt O35433, T550S); assay: biochemical; assay type: binding
[6] = biological target: rTRPV1 T550A (Rattus norvegicus, UniProt O35433, T550A); assay: biochemical; assay type: binding
[7] = biological target: TRPV1; details: cited from earlier work

Sequence of rTRPV1 WT (O35433 whole entry): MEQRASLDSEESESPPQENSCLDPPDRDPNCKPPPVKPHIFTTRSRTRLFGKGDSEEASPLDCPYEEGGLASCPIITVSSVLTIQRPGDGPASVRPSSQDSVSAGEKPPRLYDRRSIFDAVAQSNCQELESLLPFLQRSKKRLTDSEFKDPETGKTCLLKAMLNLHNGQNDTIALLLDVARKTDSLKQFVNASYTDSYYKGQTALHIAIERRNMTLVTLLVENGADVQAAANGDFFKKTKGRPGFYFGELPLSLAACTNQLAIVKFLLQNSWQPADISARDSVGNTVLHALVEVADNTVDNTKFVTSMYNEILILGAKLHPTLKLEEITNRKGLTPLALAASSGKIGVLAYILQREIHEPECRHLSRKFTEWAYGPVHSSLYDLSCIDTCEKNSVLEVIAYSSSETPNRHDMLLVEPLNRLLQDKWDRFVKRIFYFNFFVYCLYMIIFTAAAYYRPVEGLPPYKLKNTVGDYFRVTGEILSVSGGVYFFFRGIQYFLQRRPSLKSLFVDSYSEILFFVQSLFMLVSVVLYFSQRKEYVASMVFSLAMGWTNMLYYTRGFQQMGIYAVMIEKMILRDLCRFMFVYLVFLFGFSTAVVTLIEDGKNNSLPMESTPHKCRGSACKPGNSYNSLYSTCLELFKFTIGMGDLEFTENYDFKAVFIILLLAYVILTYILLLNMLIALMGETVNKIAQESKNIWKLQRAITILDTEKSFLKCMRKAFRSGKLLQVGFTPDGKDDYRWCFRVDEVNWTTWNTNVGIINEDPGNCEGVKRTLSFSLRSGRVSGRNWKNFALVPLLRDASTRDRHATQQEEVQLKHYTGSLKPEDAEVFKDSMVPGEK
Sequence of rTRPV1 M547L (O35433 whole entry M547L): as the sequence (O35433 whole entry) above, with M547L counted along it
Sequence of rTRPV1 T550I (O35433 whole entry T550I): as the sequence (O35433 whole entry) above, with T550I counted along it
Sequence of rTRPV1 T550A (O35433 whole entry T550A): as the sequence (O35433 whole entry) above, with T550A counted along it
Sequence of rTRPV1 T550S (O35433 whole entry T550S): as the sequence (O35433 whole entry) above, with T550S counted along it
Sequence of rTRPV1 Y511F (O35433 whole entry Y511F): as the sequence (O35433 whole entry) above, with Y511F counted along it

Compound | Kd [1] | Maximal binding capacity [1] | Ratio [1] | Kd [2] | Kd [3] | Kd [4] | Kd [5] | Kd [6] | Ki [7]
C=C(C)[C@]12C[C@@H](C)[C@@]34O[C@](Cc5ccccc5)(O[C@@H]1[C@@H]3C=C(COC(=O)Cc1ccc(O)c(OC)c1)C[C@]1(O)C(=O)C(C)=C[C@@H]41)O2 [RTX, resiniferatoxin] | 0.203 ± 0.02 nM | 6400 fmol/mg protein | 1.0 | 0.79 ± 0.13 nM | 2.38 ± 0.24 nM | 4.16 ± 0.82 nM | 0.233 ± 0.022 nM | 0.417 ± 0.062 nM | 
COc1cc(CNC(=S)NCC(COC(=O)C(C)(C)C)Cc2ccc(C(C)(C)C)cc2)ccc1O (stereo not drawn) [sRTX, N-{3-pivaloyloxy-2-(4-t-butylbenzyl)propyl}-N′-(4-hydroxyl-3-methoxybenzyl)thiourea] |  |  |  |  |  |  |  |  | 11 nM
